Source: patent US20260265055A1, “Sulfine-Based Compounds for Generating Hydrogen Persulfide” (Brown University, priority 2023, published 2026)

What was measured:
[1] = SSP4 fluorescence assay to determine generation of H2S2 in buffer
Excerpt: To further evaluate the specificity of TTS in converting H2S to H2S2, SSP4 was used to monitor the formation of H2S2 in this reaction and the results were compared with a series of controls. Details of the SSP4 experiments are provided later herein. SSP4 is a well-established fluorescent sensor for sulfane sulfurs including H2S2. See Shieh, M. et al., Shining a light on SSP4: a comprehensive analysis and biological applications for the detection of sulfane sulfurs. Redox Biol. 2022, 56, 102433. […] Without wishing to be bound by scientific theory, it is believed that thiols would compete with SSP4 to react with H2S2, thereby causing decreased signals.
SSP4 was dissolved in DMSO to obtain a 200 μM stock solution. CTAB was dissolved in ethanol to yield a 2 mM stock solution. TTS and TT were dissolved in DMSO to make 1 mM stock solutions. Na2S, Na2S2, and L-cysteine were prepared in MilliQ H2O to obtain stock solutions at 2 mM, 1 mM, and 4 mM, respectively. 50 mM PBS buffer was added to individual wells of a black polystyrene, flat-bottomed clear 96-well plate, followed by TTS (25 μM) or TT (25 μM), and Na2S (50 μM), cysteine (100 μM), or Na2S2 (25 μM). For the interference assay, TTS or TT (25 μM) were added to wells with or without Na2S (50 μM). Samples were mixed by pipetting up and down and incubated in the dark at room temperature (rt) for 30 min. Next, CTAB (50 μM) was added to all wells followed by SSP4 (5 μM), and samples were mixed by pipetting up and down. The final volume was 200 μL in each well. Samples were then incubated in the dark at room temperature for another 30 min before being measured on a Molecular Devices SpectraMax iD3 Multi-Mode Microplate Reader (emission 525 nm; excitation 485 nm; integration time […], low PMT sensitivity, attenuation 1, read height 1.00 mm).

GAPDH = target: T1, GAPDH (Oryctolagus cuniculus, UniProt P46406); assay: GAPDH protein S-persulfidation (SSP4 fluorescence, LC-MS/MS); format: biochemical, rabbit
T1 construct: GAPDH (from rabbit muscle, #G2267, Sigma-Aldrich); purchased Sigma-Aldrich G2267; host or cells: rabbit muscle (tissue-purified)
T1 sequence (P46406 whole entry): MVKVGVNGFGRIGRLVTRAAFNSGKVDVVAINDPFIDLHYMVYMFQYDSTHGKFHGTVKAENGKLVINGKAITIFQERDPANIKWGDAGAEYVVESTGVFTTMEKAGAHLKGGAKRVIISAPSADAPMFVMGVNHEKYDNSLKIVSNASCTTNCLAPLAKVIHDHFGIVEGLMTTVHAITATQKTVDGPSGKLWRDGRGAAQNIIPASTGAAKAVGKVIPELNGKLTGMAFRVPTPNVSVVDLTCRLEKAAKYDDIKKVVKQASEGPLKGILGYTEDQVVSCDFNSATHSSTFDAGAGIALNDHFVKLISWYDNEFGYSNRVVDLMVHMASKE
Experimental: One of the primary functions of H2S2 is to induce protein S-persulfidation. Existing methods treat proteins with Na2S2 directly to obtain the persulfidated proteins. The present disclosure contemplates the use of TTS and H2S to persulfidate proteins as a comparison with Na2S2. GAPDH was used as the protein model and its persulfidation was evaluated by SSP4 using a protocol described in Shieh, M. et al., Shining a light on SSP4: a comprehensive analysis and biological applications for the detection of sulfane sulfurs. Redox Biol. 2022, 56, 102433 and Ni, X. et al., A sweet H2S/H2O2 dual release system and specific protein S-persulfidation mediated by thioglucose/glucose oxidase. J. Am. Chem. Soc. 2021, 143, 13325-13332. Reduced GAPDH (100 μM) was individually treated with 10 eq. of TTS+Na2S or Na2S2, as well as control reagents (TTS or Na2S only). The protein samples were then purified using Zeba Spin Desalting Columns (7K MWCO), diluted (to 10 μM), and treated with SSP4 (5 μM). Fluorescence signals were recorded to reflect persulfidation levels. […] To provide further evidence of persulfidation in the GAPDH system, TTS+Na2S-treated GAPDH was alkylated with HPE-IAM to stabilize the protein persulfides.
216 μL of PBS (50 mM, pH 7.4) was added to 3.9 mg of GAPDH (from rabbit muscle, #G2267, Sigma-Aldrich) to obtain a concentration of 500 μM (MW: 36 kDa). DTT (10 mM in DMSO, 11.35 μL) was added for a final equal concentration with the GAPDH. The solution was incubated in the dark at room temperature for 30 min. Zeba 7K MWCO spin columns were prepared and used according to manufacturer's instructions with 3 PBS washes. Excess reductant was removed by column purification with the Zeba 7K MWCO columns. The resulting reduced protein concentration was determined by the absorbance at 280 nm (εmM=30.4 mM-1 cm-1) using the Nanodrop One Microvolume UV-Vis Spectrophotometer (ThermoFisher Scientific). For controls, reduced GAPDH was treated with NEM (1:5 equiv.) and incubated at rt in the dark for 30 min before excess NEM was removed by the Zeba 7K MWCO columns. Next, the reduced protein was diluted to a final concentration of 100 μM in a final volume of 100 μL and treated with TTS (10 μL of 10 mM in DMSO for a final concentration of 1 mM), Na2S (10 μL of 10 mM in MilliQ H2O for a final concentration of 1 mM), both TTS and Na2S, or Na2S2 (10 μL of 10 mM in MilliQ H2O for a final concentration of 1 mM). For example, if the reduced protein (361 μM) was only to be treated with TTS, 62.3 μL of PBS (50 mM, pH 7.4) would first be added to an Eppendorf tube, followed by 27.7 μL of protein, and followed by 10 μL of TTS. TTS+Na2S and Na2S2 samples were also prepared at the concentrations above without any protein, where PBS (50 mM, pH 7.4) was used in place of the proteins (volume-wise). Samples were incubated at room temperature for 30 min in the dark before being purified by Zeba 7K MWCO columns (three times to ensure proper removal of excess treatment molecules) and quantified by absorbance. […] All samples were then incubated with SSP4 (5 μL of 100 μM in DMSO for a final concentration of 5 μM) in individual wells of a black clear flat bottom 96-well plate. The final volume was 100 μL. For example, if the persulfidated protein (99.5 μM) was to be examined, 84.95 μL of PBS (50 mM, pH 7.4) would first be added to a well, followed by 10.05 μL of protein, and then followed by 5 μL of SSP4. Incubation occurred at room temperature in the dark for 30 min before being measured on the SpectraMax iD3 microplate reader (ex: 485 nm; em: 525 nm).

SMILES: COC(=O)c1ccc(=S=O)sc1 [TTS, 2H-thiopyran-2-thione sulfine]
- SSP4 fluorescence in interference experiments with thiols ([1]; 25 μM TTS + 50 μM Na2S + 200 μM Cys or 1 mM GSH): decreased but still significant fluorescence
- SSP4 fluorescence response (H2S2 formation) ([1]; 25 μM compound + 50 μM Na2S (H2S), PBS, SSP4 5 μM): significant fluorescence response
- SSP4 fluorescence response (sulfane sulfur formation) ([1]; 25 μM compound + 100 μM Cys, SSP4 5 μM): No fluorescence
- SSP4 fluorescence response (H2S2 formation) ([1]; 25 μM compound only, SSP4 5 μM): No fluorescence
- GAPDH persulfidation signal compared with Na2S2 (GAPDH; TTS 1 mM + Na2S 1 mM vs Na2S2 1 mM, one-way ANOVA): significantly higher signals than Na2S2
- GAPDH persulfidation by LC-MS/MS after HPE-IAM alkylation and trypsin digestion (GAPDH; TTS+Na2S-treated GAPDH): successful protein persulfidation
- SSP4 fluorescence of persulfidated GAPDH (GAPDH; reduced GAPDH 100 μM treated with TTS 1 mM + Na2S 1 mM): strong fluorescence
- SSP4 fluorescence of persulfidated GAPDH (GAPDH; reduced GAPDH 100 μM treated with the reagent only (1 mM)): did not give any notable fluorescence
